Laboratory results as given in patent US10988459B2 (priority 2015, dated 2021).

What follows are compounds tested against human RIP1 kinase domain (2-375) (Homo sapiens (Human), UniProt Q13546) (assay: biochemical). Details: human RIP1 kinase domain (2-375), 50 uM ATP, 2 hours incubation, Transcreener ADP assay; read-out: RIP1 Ki.
Format: biochemical
Method in brief: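 Ki^app comes from Morrison tight-binding fits of fractional activity versus compound concentration. Activity was read as ADP production, via tracer displacement lowering fluorescence polarization (633 nm laser). Conditions: 2 h, 50 nM insect-cell-expressed enzyme, 50 uM ATP, 30 mM MgCl2, 1 mM DTT, 0.5% DMSO, pH 7.5 Hepes.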

Sequence of human RIP1 kinase domain (2-375) (Q13546 2-375): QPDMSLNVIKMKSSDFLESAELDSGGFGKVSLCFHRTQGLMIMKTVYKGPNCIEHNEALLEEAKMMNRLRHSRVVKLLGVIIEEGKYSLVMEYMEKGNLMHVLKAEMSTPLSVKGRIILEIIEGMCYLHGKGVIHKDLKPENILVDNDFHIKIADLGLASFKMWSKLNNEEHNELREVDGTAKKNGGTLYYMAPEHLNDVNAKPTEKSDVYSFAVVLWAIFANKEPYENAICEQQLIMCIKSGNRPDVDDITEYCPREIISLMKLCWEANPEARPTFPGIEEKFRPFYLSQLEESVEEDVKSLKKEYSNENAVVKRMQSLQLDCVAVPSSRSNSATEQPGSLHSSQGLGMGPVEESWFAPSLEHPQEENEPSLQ

Ki [nM]	SMILES
16.2	CN1C(=O)[C@@H](NC(=O)c2ncn(Cc3ccccc3)n2)CCn2nc(C3CC3)cc21 [Example 171, (S)-1-benzyl-N-(2-cyclopropyl-4-methyl-5-oxo-5,6,7,8-tetrahydro-4H-pyrazolo[1,5-a][1,3]diazepin-6-yl)-1H-1,2,4-triazole-3-carboxamide]
22.9	Cc1cc2n(n1)CC[C@H](NC(=O)c1ncn(Cc3ccccc3)n1)C(=O)N2C [Example 172, (S)-1-benzyl-N-(2,4-dimethyl-5-oxo-5,6,7,8-tetrahydro-4H-pyrazolo[1,5-a][1,3]diazepin-6-yl)-1H-1,2,4-triazole-3-carboxamide]
39.1	CC(C)C1CCc2cnc(C(=O)N[C@H]3COc4ccccc4N(C)C3=O)n2C1 (stereo partly drawn) [Example 173, 6-isopropyl-N—((S)-5-methyl-4-oxo-2,3,4,5-tetrahydrobenzo[b][1,4]oxazepin-3-yl)-5,6,7,8-tetrahydroimidazo[1,5-a]pyridine-3-carboxamide]
166	CN1C(=O)[C@@H](NC(=O)c2n[nH]c3c2CC2(CC3)CC2)COc2ccccc21 [Example 174, (S)—N-(5-methyl-4-oxo-2,3,4,5-tetrahydrobenzo[b][1,4]oxazepin-3-yl)-1′,4′,6′,7′-tetrahydrospiro[cyclopropane-1,5′-indazole]-3′-carboxamide]
212	CN1C(=O)C(NC(=O)c2nnc(Cc3ccccc3)[nH]2)CCn2ccnc21 (stereo not drawn) [Example 175, 5-benzyl-N-(9-methyl-8-oxo-6,7,8,9-tetrahydro-5H-imidazo[1,2-a][1,3]diazepin-7-yl)-4H-1,2,4-triazole-3-carboxamide]
1400	CN1C(=O)C(NC(=O)c2n[nH]c3c2C[C@@H](C(F)(F)F)CC3)CCn2ccnc21 (stereo partly drawn) [Example 176, (5S)—N-(9-methyl-8-oxo-6,7,8,9-tetrahydro-5H-imidazo[1,2-a][1,3]diazepin-7-yl)-5-(trifluoromethyl)-4,5,6,7-tetrahydro-1H-indazole-3-carboxamide]
1900	CN1C(=O)C(NC(=O)c2ccn(Cc3ccc(F)c(F)c3)n2)CCn2ccnc21 (stereo not drawn) [Example 177, 1-(3,4-difluorobenzyl)-N-(9-methyl-8-oxo-6,7,8,9-tetrahydro-5H-imidazo[1,2-a][1,3]diazepin-7-yl)-1H-pyrazole-3-carboxamide]
477	CN1C(=O)C(NC(=O)c2cn(Cc3ccc(F)c(F)c3)cn2)CCn2ccnc21 (stereo not drawn) [Example 178, 1-(3,4-difluorobenzyl)-N-(9-methyl-8-oxo-6,7,8,9-tetrahydro-5H-imidazo[1,2-a][1,3]diazepin-7-yl)-1H-imidazole-4-carboxamide]
254	CC(C)n1ncc2c1OC[C@H](NC(=O)c1nnc(Cc3ccccc3)[nH]1)C(=O)N2C [Example 179, (S)-5-benzyl-N-(1-isopropyl-4-methyl-5-oxo-4,5,6,7-tetrahydro-1H-pyrazolo[3,4-b][1,4]oxazepin-6-yl)-4H-1,2,4-triazole-3-carboxamide]
8500	CC(C)n1ncc2c1OC[C@H](NC(=O)c1cn(Cc3ccc(F)c(F)c3)cn1)C(=O)N2C [Example 180, (S)-1-(3,4-difluorobenzyl)-N-(1-isopropyl-4-methyl-5-oxo-4,5,6,7-tetrahydro-1H-pyrazolo[3,4-b][1,4]oxazepin-6-yl)-1H-imidazole-4-carboxamide]
93.6	CN1C(=O)[C@@H](NC(=O)c2nnc(Cc3ccccc3)[nH]2)COc2c1cnn2C [Example 181, (S)-5-benzyl-N-(1,4-dimethyl-5-oxo-4,5,6,7-tetrahydro-1H-pyrazolo[3,4-b][1,4]oxazepin-6-yl)-4H-1,2,4-triazole-3-carboxamide]
2300	CN1C(=O)[C@@H](NC(=O)c2ccn(Cc3ccc(F)c(F)c3)n2)COc2c1cnn2C [Example 182, (S)-1-(3,4-difluorobenzyl)-N-(1,4-dimethyl-5-oxo-4,5,6,7-tetrahydro-1H-pyrazolo[3,4-b][1,4]oxazepin-6-yl)-1H-pyrazole-3-carboxamide]
